Here are results for 23 compounds from patent US10450316B2, “Certain protein kinase inhibitor” (Chongqing Fochon Pharmaceutical Co., Ltd., priority 2015, dated 2019).

The IC50 is the midpoint of a concentration-inhibition curve. Low readings indicate inhibition by little substance, high ones a need for much substance.

The test system of the experiment is BE(2)-C cell. The experiment in a line: Cell proliferation assay (MTS) in BE(2)-C cells. Conditions: Homo sapiens, inhibition of BE(2)-C cell proliferation, 48 h. Type of experiment: cell-based. In outline: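 Proliferation read-out was MTS absorbance at 490 nm, with 650 nm as reference, after a 2 h MTS incubation, giving IC50 values. Before reading, BE(2)-C cells plated at 3000 per well were exposed to nine compound concentrations from 10000 down to 1.5 nM for 48 h at 37 °C, 5% CO2.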

As for `CCN1CC2CN(Cc3ccc(Nc4ncc(F)c(-c5cc(F)c6nc7n(c6c5)[C@H](C)CC7)n4)nc3)CC2C1` (stereo partly drawn) [Example 100, N-(5-((5-ethylhexahydropyrrolo[3,4-c]pyrrol-2(1H)-yl)methyl)pyridin-2-yl)-5-fluoro-4-((R)-5-fluoro-1-methyl-2,3-dihydro-1H-benzo[d]pyrrolo[1,2-a]imidazol-7-yl)pyrimidin-2-amine], the IC50 fell in the range of 0.01 to 0.1 µM.

As for `CN1CCC2(CC1)CN(Cc1ccc(Nc3ncc(F)c(-c4cc(F)c5nc6n(c5c4)[C@H](C(F)F)CC6)n3)nc1)C2` [Example 43, (S)-4-(1-(difluoromethyl)-5-fluoro-2,3-dihydro-1H-benzo[d]pyrrolo[1,2-a]imidazol-7-yl)-5-fluoro-N-(5-((7-methyl-2,7-diazaspiro[3.5]nonan-2-yl)methyl)pyridin-2-yl)pyrimidin-2-amine], the IC50 was 0.01 to 0.1 µM. Regarding `Fc1cnc(Nc2ccc(CN3CCN4CCC[C@@H]4C3)cn2)nc1-c1cc(F)c2nc3n(c2c1)[C@H](C(F)(F)F)CC3` [Example 60, 5-fluoro-4-((S)-5-fluoro-1-(trifluoromethyl)-2,3-dihydro-1H-benzo[d]pyrrolo[1,2-a]imidazol-7-yl)-N-(5-(((R)-hexahydropyrrolo[1,2-a]pyrazin-2(1H)-yl)methyl)pyridin-2-yl)pyrimidin-2-amine], the IC50 was 0.01 to 0.1 µM. As to `CCN1CCN(Cc2ccc(Nc3ncc(F)c(-c4cc(F)c5nc6n(c5c4)[C@H](CF)CC6)n3)nc2)CC1` [Example 6, (S)—N-(5-((4-ethylpiperazin-1-yl)methyl)pyridin-2-yl)-5-fluoro-4-(5-fluoro-1-(fluoromethyl)-2,3-dihydro-1H-benzo[d]pyrrolo[1,2-a]imidazol-7-yl)pyrimidin-2-amine], the IC50 is over 0.1 µM. `CCN1CC2(C1)CN(Cc1ccc(Nc3ncc(F)c(-c4cc(F)c5nc6n(c5c4)[C@H](C)CC6)n3)nc1)C2` [Example 97, (R)-N-(5-((6-ethyl-2,6-diazaspiro[3.3]heptan-2-yl)methyl)pyridin-2-yl)-5-fluoro-4-(5-fluoro-1-methyl-2,3-dihydro-1H-benzo[d]pyrrolo[1,2-a]imidazol-7-yl)pyrimidin-2-amine] displayed an IC50 of 0.01 to 0.1 µM. To `CCN1CCC2(CC1)CN(Cc1ccc(Nc3ncc(F)c(-c4cc(F)c5nc6n(c5c4)[C@H](C(F)F)CC6)n3)nc1)C2` [Example 44, (S)-4-(1-(difluoromethyl)-5-fluoro-2,3-dihydro-1H-benzo[d]pyrrolo[1,2-a]imidazol-7-yl)-N-(5-((7-ethyl-2,7-diazaspiro[3.5]nonan-2-yl)methyl)pyridin-2-yl)-5-fluoropyrimidin-2-amine] belongs 0.01 to 0.1 µM; to `CN1CCN(Cc2ccc(Nc3ncc(F)c(-c4cc(F)c5nc6n(c5c4)[C@H](CO)CC6)n3)nc2)CC1` [Example 2, (S)-(5-fluoro-7-(5-fluoro-2-((5-((4-methylpiperazin-1-yl)methyl)pyridin-2-yl)amino)pyrimidin-4-yl)-2,3-dihydro-1H-benzo[d]pyrrolo[1,2-a]imidazol-1-yl)methanol], over 0.1 µM; to `CCN1CCC2(CC1)CN(Cc1ccc(Nc3ncc(F)c(-c4cc(F)c5nc6n(c5c4)[C@H](CF)CC6)n3)nc1)C2` [Example 22, (S)-N-(5-((7-ethyl-2,7-diazaspiro[3.5]nonan-2-yl)methyl)pyridin-2-yl)-5-fluoro-4-(5-fluoro-1-(fluoromethyl)-2,3-dihydro-1H-benzo[d]pyrrolo[1,2-a]imidazol-7-yl)pyrimidin-2-amine], over 0.1 µM. Compound `CN1CC2CCC(C1)N2Cc1ccc(Nc2cc(-c3cc(F)c4nc5n(c4c3)C(C)(C)CC5)c(F)cn2)nc1` [Example 162, 5-fluoro-4-(5-fluoro-1,1-dimethyl-2,3-dihydro-1H-benzo[d]pyrrolo[1,2-a]imidazol-7-yl)-N-(5-((3-methyl-3,8-diazabicyclo[3.2.1]octan-8-yl)methyl)pyridin-2-yl)pyridin-2-amine] yielded an IC50 of over 1 µM. With `CC1(C)CCc2nc3c(F)cc(-c4nc(Nc5ccc(CN6CC7CCC(C6)N7)cn5)ncc4F)cc3n21` [Example 129, N-(5-((3,8-diazabicyclo[3.2.1]octan-3-yl)methyl)pyridin-2-yl)-5-fluoro-4-(5-fluoro-1,1-dimethyl-2,3-dihydro-1H-benzo[d]pyrrolo[1,2-a]imidazol-7-yl)pyrimidin-2-amine] the figure was 0.01 to 0.1 µM. With `C[C@@H]1CCc2nc3c(F)cc(-c4nc(Nc5ccc(CN6C7CCC6CNC7)cn5)ncc4F)cc3n21` [Example 101, N-(5-((3,8-diazabicyclo[3.2.1]octan-8-yl)methyl)pyridin-2-yl)-5-fluoro-4-((R)-5-fluoro-1-methyl-2,3-dihydro-1H-benzo[d]pyrrolo[1,2-a]imidazol-7-yl)pyrimidin-2-amine] the figure was over 0.1 µM; with `CCN1CCN(Cc2ccc(Nc3ncc(F)c(-c4cc(F)c5nc6n(c5c4)[C@H](COC)CC6)n3)nc2)CC1` [Example 9, (S)—N-(5-((4-ethylpiperazin-1-yl)methyl)pyridin-2-yl)-5-fluoro-4-(5-fluoro-1-(methoxymethyl)-2,3-dihydro-1H-benzo[d]pyrrolo[1,2-a]imidazol-7-yl)pyrimidin-2-amine], over 0.1 µM; with `CC1(C)CCc2nc3c(F)cc(-c4cc(Nc5ncc(CN6CCNCC6)cn5)ncc4F)cc3n21` [Example 164, N-(5-fluoro-4-(5-fluoro-1,1-dimethyl-2,3-dihydro-1H-benzo[d]pyrrolo[1,2-a]imidazol-7-yl)pyridin-2-yl)-5-(piperazin-1-ylmethyl)pyrimidin-2-amine], 0.01 to 0.1 µM. To `CN1CC2CCC(C1)N2Cc1ccc(Nc2cc(-c3cnc4nc5n(c4c3)C(C)(C)CC5)c(F)cn2)nc1` [Example 168, 4-(6,6-dimethyl-7,8-dihydro-6H-pyrrolo[1′,2′:1,2]imidazo[4,5-b]pyridin-3-yl)-5-fluoro-N-(5-((3-methyl-3,8-diazabicyclo[3.2.1]octan-8-yl)methyl)pyridin-2-yl)pyridin-2-amine] belongs over 0.1 µM; to `COC[C@H]1CCc2nc3c(F)cc(-c4nc(Nc5ccc(CN6CCN(C)CC6)cn5)ncc4F)cc3n21` [Example 159, (R)-5-fluoro-4-(5-fluoro-1-(methoxymethyl)-2,3-dihydro-1H-benzo[d]pyrrolo[1,2-a]imidazol-7-yl)-N-(5-((4-methylpiperazin-1-yl)methyl)pyridin-2-yl)pyrimidin-2-amine], over 1 µM; to `Fc1cnc(Nc2ccc(CN3C4CCC3CNC4)cn2)nc1-c1cc(F)c2nc3n(c2c1)[C@H](C(F)F)CC3` [Example 54, N-(5-((3,8-diazabicyclo[3.2.1]octan-8-yl)methyl)pyridin-2-yl)-4-((S)-1-(difluoromethyl)-5-fluoro-2,3-dihydro-1H-benzo[d]pyrrolo[1,2-a]imidazol-7-yl)-5-fluoropyrimidin-2-amine], over 0.1 µM.

Consider `CCN1CC2(C1)CN(Cc1ccc(Nc3ncc(F)c(-c4cc(F)c5nc6n(c5c4)[C@H](CF)CC6)n3)nc1)C2` [Example 25, (S)-N-(5-((6-ethyl-2,6-diazaspiro[3.3]heptan-2-yl)methyl)pyridin-2-yl)-5-fluoro-4-(5-fluoro-1-(fluoromethyl)-2,3-dihydro-1H-benzo[d]pyrrolo[1,2-a]imidazol-7-yl)pyrimidin-2-amine], for which the concentration for half-maximal inhibition (IC50) was in the range of 0.01 to 0.1 µM. To `Fc1cnc(Nc2ccc(CN3CCNCC3)cn2)nc1-c1cc(F)c2nc3n(c2c1)C1(CC3)CC1` [Example 13, 5-fluoro-4-(5-fluoro-2,3-dihydrospiro[benzo[d]pyrrolo[1,2-a]imidazole-1,1′-cyclopropan]-7-yl)-N-(5-(piperazin-1-ylmethyl)pyridin-2-yl)pyrimidin-2-amine] belongs over 0.1 µM. To `CCN1CCC2(CC1)CCN(Cc1ccc(Nc3ncc(F)c(-c4cc(F)c5nc6n(c5c4)[C@H](C(F)F)CC6)n3)nc1)CC2` [Example 53, (S)-4-(1-(difluoromethyl)-5-fluoro-2,3-dihydro-1H-benzo[d]pyrrolo[1,2-a]imidazol-7-yl)-N-(5-((9-ethyl-3,9-diazaspiro[5.5]undecan-3-yl)methyl)pyridin-2-yl)-5-fluoropyrimidin-2-amine] belongs over 0.1 µM; to `CCN1CCC2(CC1)CN(Cc1ccc(Nc3ncc(F)c(-c4cc(F)c5nc6n(c5c4)[C@H](C)CC6)n3)nc1)C2` [Example 91, (R)-N-(5-((7-ethyl-2,7-diazaspiro[3.5]nonan-2-yl)methyl)pyridin-2-yl)-5-fluoro-4-(5-fluoro-1-methyl-2,3-dihydro-1H-benzo[d]pyrrolo[1,2-a]imidazol-7-yl)pyrimidin-2-amine], 0.01 to 0.1 µM; to `Fc1cnc(Nc2ccc(CN3CC4(CNC4)C3)cn2)nc1-c1cc(F)c2nc3n(c2c1)[C@H](C(F)(F)F)CC3` [Example 67, (S)-N-(5-((2,6-diazaspiro[3.3]heptan-2-yl)methyl)pyridin-2-yl)-5-fluoro-4-(5-fluoro-1-(trifluoromethyl)-2,3-dihydro-1H-benzo[d]pyrrolo[1,2-a]imidazol-7-yl)pyrimidin-2-amine], over 0.1 µM.

With `CCN1CC2(CCN(Cc3ccc(Nc4ncc(F)c(-c5cc(F)c6nc7n(c6c5)C(C)(C)CC7)n4)nc3)CC2)C1` [Example 116, N-(5-((2-ethyl-2,7-diazaspiro[3.5]nonan-7-yl)methyl)pyridin-2-yl)-5-fluoro-4-(5-fluoro-1,1-dimethyl-2,3-dihydro-1H-benzo[d]pyrrolo[1,2-a]imidazol-7-yl)pyrimidin-2-amine], the IC50 fell in the range of 0.01 to 0.1 µM. `CN1CC2CCC(C1)N2Cc1ccc(Nc2ncc(F)c(-c3cc(F)c4nc5n(c4c3)[C@H](C(F)F)CC5)n2)nc1` [Example 55, 4-((S)-1-(difluoromethyl)-5-fluoro-2,3-dihydro-1H-benzo[d]pyrrolo[1,2-a]imidazol-7-yl)-5-fluoro-N-(5-((3-methyl-3,8-diazabicyclo[3.2.1]octan-8-yl)methyl)pyridin-2-yl)pyrimidin-2-amine] registered an IC50 of 0.01 to 0.1 µM.
